Test [1] addresses T1, Amine oxidase [flavin-containing] A (Homo sapiens, UniProt P21397).
T1 sequence (P21397 whole entry): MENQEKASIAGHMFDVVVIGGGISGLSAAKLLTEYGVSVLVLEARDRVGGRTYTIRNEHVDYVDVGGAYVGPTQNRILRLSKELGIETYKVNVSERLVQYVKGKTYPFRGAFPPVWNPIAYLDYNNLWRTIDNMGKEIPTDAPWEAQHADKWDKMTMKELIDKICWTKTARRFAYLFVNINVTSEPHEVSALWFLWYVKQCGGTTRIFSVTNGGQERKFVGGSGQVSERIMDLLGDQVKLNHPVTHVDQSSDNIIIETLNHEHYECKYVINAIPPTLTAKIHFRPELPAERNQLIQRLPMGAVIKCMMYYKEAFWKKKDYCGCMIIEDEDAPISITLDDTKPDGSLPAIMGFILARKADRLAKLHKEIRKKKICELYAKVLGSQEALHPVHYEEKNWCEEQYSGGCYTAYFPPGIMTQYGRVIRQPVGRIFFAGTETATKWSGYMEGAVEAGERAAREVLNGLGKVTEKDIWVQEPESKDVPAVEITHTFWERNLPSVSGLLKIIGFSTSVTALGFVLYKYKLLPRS
Briefly: Inhibition of human recombinant MAOA assessed as kynuramine conversion to 4-hydroxyquinoline after 20 mins by fluorescence assay.

The next test is filed under the species Homo sapiens. Briefly: Selectivity index, ratio of Ki for human recombinant MAOA to Ki for human recombinant MAOB.
Test [2] concerns the target T1, Amine oxidase [flavin-containing] A. Briefly: Binding affinity to human recombinant MAOA.
Test [3] has as its target T2, Amine oxidase [flavin-containing] B (Homo sapiens, UniProt P27338).
T2 sequence (P27338 whole entry): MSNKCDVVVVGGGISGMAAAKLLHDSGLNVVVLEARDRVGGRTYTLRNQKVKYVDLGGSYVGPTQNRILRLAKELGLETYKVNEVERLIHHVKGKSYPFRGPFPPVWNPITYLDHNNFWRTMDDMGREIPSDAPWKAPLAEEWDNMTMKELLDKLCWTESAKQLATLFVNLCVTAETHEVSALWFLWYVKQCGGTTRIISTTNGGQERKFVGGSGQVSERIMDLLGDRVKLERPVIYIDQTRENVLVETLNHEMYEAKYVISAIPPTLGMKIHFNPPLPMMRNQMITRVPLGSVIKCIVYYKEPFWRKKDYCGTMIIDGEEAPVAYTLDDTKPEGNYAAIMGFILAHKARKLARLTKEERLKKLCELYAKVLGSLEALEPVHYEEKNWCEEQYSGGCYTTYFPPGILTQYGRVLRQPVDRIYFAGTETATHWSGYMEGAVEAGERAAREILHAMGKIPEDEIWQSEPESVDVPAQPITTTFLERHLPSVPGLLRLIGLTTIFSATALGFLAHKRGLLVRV
Briefly: Binding affinity to human recombinant MAOB.

Test [4] concerns the target T2, Amine oxidase [flavin-containing] B. As to the kind of experiment: Inhibition of human recombinant MAOB assessed as kynuramine conversion to 4-hydroxyquinoline after 20 mins by fluorescence assay.

This note sets out measurements from ChEMBL document CHEMBL3217687, “Identification of multifunctional small molecule-based reversible monoamine oxidase inhibitors” (Medchemcomm, 2011).

Each structure is given as a SMILES string.

What is called IC50 is the concentration that inhibits the measured activity by half. Broadly, the Ki is the dissociation constant of the complex between target and ligand, obtained from inhibition or displacement. Take `c1ccc(NCc2ccccn2)cc1`: the IC50 in test [1] was 20 µM; in test [4] it was 182 µM. Further, the Ratio Ki in the test filed under Homo sapiens is 0.06. In addition, the values for the Ki in test [2] and in test [3] were 5.7 µM and 97 µM, respectively.
Consider `CN(C)c1ccc(/N=C/c2ccccn2)cc1`, for which the IC50 is 0.36 µM in test [1] and 0.068 µM in test [4]. Moreover, the Ratio Ki in the test filed under Homo sapiens is 2.8. The Ki in test [2] was 0.1 µM; in test [3] it was 0.04 µM.
